PubChem BioAssay AID1627 (PCMD, 2009)
Records with an inconclusive call do not appear. Calls of active or inactive are those of the source. How the calls were made is not given here.

The compounds below were run against Procathepsin L (Homo sapiens) (UniProt P07711) (assay: cathepsin L inhibition with added cysteine, dose response, biochemical, cysteine present (AID 1627)). Details: purified cathepsin L, fluorogenic substrate.
Sequence of Procathepsin L (Homo sapiens) (P07711 114-288 limits assumed): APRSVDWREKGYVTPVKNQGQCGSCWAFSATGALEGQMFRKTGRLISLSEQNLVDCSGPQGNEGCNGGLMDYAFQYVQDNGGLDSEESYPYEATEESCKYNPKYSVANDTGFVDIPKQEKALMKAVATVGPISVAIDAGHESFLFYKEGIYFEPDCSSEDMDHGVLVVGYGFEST
Sequence of Procathepsin L (Homo sapiens) (P07711 292-333 limits assumed): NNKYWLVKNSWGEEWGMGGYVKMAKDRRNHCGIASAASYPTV

**Q.** With `O=S(=O)(/N=S1/CC=CCN1S(=O)(=O)c1ccccc1)c1ccccc1` (stereo not given) as the compound, how does the IC50 read?
**A.** > 50 µM (inactive)

**Q.** With `Nc1nc2n(n1)C1(CCCCC1)C1=C(CCCC1)N2` as the compound, how does the IC50 read?
**A.** > 50 µM (inactive)

**Q.** `CN1CCc2c(sc3ncn4nc(-c5ccccc5O)nc4c23)C1` was tested. Which IC50 did it give?
**A.** 32 µM

**Q.** With `CC(=O)c1c(O)n(C)c(=S)n(-c2ccccc2)c1=O` as the compound, how does the IC50 read?
**A.** > 50 µM (inactive)

**Q.** `CC1=C(C(=O)Nc2ccc(F)cc2)C(c2cccc(C)c2)n2nc(CCCO)nc2N1` (stereo not given) was tested. Which IC50 did it give?
**A.** > 50 µM (inactive)

**Q.** For `CC(=O)Nc1nc2n(n1)C(c1ccc(F)cc1)C=C(c1ccccc1)N2` (stereo not given), which IC50 is on record?
**A.** > 50 µM (inactive)

**Q.** Which IC50 does the source give for `CCCCc1[nH]nc2c1C1(C(=O)N(CC)c3ccccc31)C(C#N)=C(N)O2` (stereo not given) here?
**A.** > 50 µM (inactive)

**Q.** Which IC50 does the source give for `COc1ccc(OC)c(C2C(C#N)=C(N)Oc3cc(C)n(Cc4ccccn4)c(=O)c32)c1` (stereo not given) here?
**A.** > 50 µM (inactive)

**Q.** For `CCCCOc1ccc(C2C3CN(C(=O)OCC)CC=C3C(C#N)=C(N)C2(C#N)C#N)cc1OC` (stereo not given), which IC50 is on record?
**A.** > 50 µM (inactive)

**Q.** With `N#CC1=C(N)Oc2c(sc3ccccc23)C1c1ccco1` (stereo not given) as the compound, how does the IC50 read?
**A.** > 50 µM (inactive)
